Assay results taken from PubChem BioAssay (NCI).
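48-hour exposure; five concentrations; linearly interpolated endpoints. GI50 is the concentration that inhibits growth by half. TGI denotes the concentration required for complete inhibition of growth.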

Tests used:
Assay in all cases: NCI tumour cell line growth inhibition, 48 h
SK-OV-3 ovarian = system: SK-OV-3 ovarian
HL-60(TB) leukemia = system: HL-60(TB) leukemia
SK-MEL-5 melanoma = system: SK-MEL-5 melanoma
OVCAR-3 ovarian = system: OVCAR-3 ovarian
NCI-H226 lung = system: NCI-H226 lung
A498 renal = system: A498 renal
HS 578T breast = system: HS 578T breast
HCC-2998 colon = system: HCC-2998 colon
NCI-H522 lung = system: NCI-H522 lung
T-47D breast = system: T-47D breast

c1ccc([As]=[As]c2ccccc2)cc1 (stereo not drawn)
GI50 (SK-OV-3 ovarian): 1.82 µM | TGI (SK-OV-3 ovarian): 3.48 µM | GI50 (HL-60(TB) leukemia): 1.19 µM | TGI (HL-60(TB) leukemia): 4.19 µM | GI50 (SK-MEL-5 melanoma): 1.41 µM | TGI (SK-MEL-5 melanoma): 3.57 µM | GI50 (OVCAR-3 ovarian): 0.676 µM | TGI (OVCAR-3 ovarian): 1.85 µM | GI50 (NCI-H226 lung): 1.46 µM | TGI (NCI-H226 lung): 4.15 µM | GI50 (A498 renal): 0.668 µM | TGI (A498 renal): 2.34 µM | GI50 (HS 578T breast): 1.55 µM | TGI (HS 578T breast): 10.5 µM | GI50 (HCC-2998 colon): 1.72 µM | TGI (HCC-2998 colon): 3.41 µM | GI50 (NCI-H522 lung): 1.09 µM | TGI (NCI-H522 lung): 2.42 µM | GI50 (T-47D breast): 0.221 µM | TGI (T-47D breast): 0.876 µM

CCS(=O)(=O)c1ccc(OC)c(Nc2ncc(-c3ccccc3Cl)o2)c1
GI50 (SK-OV-3 ovarian): 8.47 µM | TGI (SK-OV-3 ovarian): > 25 µM | GI50 (HL-60(TB) leukemia): 11.8 µM | TGI (HL-60(TB) leukemia): > 21.5 µM | GI50 (SK-MEL-5 melanoma): 7.4 µM | TGI (SK-MEL-5 melanoma): > 19.4 µM | GI50 (OVCAR-3 ovarian): 9.38 µM | TGI (OVCAR-3 ovarian): > 25 µM | GI50 (NCI-H226 lung): 7.72 µM | TGI (NCI-H226 lung): > 25 µM | GI50 (A498 renal): 3.17 µM | TGI (A498 renal): 12.1 µM | GI50 (HS 578T breast): 11.5 µM | TGI (HS 578T breast): > 25 µM | GI50 (HCC-2998 colon): 18.1 µM | TGI (HCC-2998 colon): > 25 µM | GI50 (NCI-H522 lung): 8.95 µM | TGI (NCI-H522 lung): > 25 µM | GI50 (T-47D breast): 8.57 µM | TGI (T-47D breast): > 25 µM

O=C(CC(=O)c1cccc(Cl)c1)c1cccc(Cl)c1
GI50 (SK-OV-3 ovarian): 3.85 µM | TGI (SK-OV-3 ovarian): > 100 µM | GI50 (HL-60(TB) leukemia): 1.99 µM | TGI (HL-60(TB) leukemia): > 100 µM | GI50 (SK-MEL-5 melanoma): 3.87 µM | TGI (SK-MEL-5 melanoma): > 100 µM | GI50 (OVCAR-3 ovarian): 1.67 µM | TGI (OVCAR-3 ovarian): 6.09 µM | GI50 (NCI-H226 lung): 2.88 µM | TGI (NCI-H226 lung): > 100 µM | GI50 (A498 renal): 5.07 µM | TGI (A498 renal): > 100 µM | GI50 (HS 578T breast): 3.88 µM | TGI (HS 578T breast): > 100 µM | GI50 (HCC-2998 colon): 5.31 µM | TGI (HCC-2998 colon): > 100 µM | GI50 (NCI-H522 lung): 2.72 µM | TGI (NCI-H522 lung): > 100 µM | GI50 (T-47D breast): 2.53 µM | TGI (T-47D breast): > 100 µM

N#CN1CC[C@H](C(=O)Nc2cc3cc(C(N)=O)ccc3cn2)C1
GI50 (SK-OV-3 ovarian): 0.37 µM | TGI (SK-OV-3 ovarian): > 100 µM | GI50 (HL-60(TB) leukemia): 0.109 µM | TGI (HL-60(TB) leukemia): 0.443 µM | GI50 (SK-MEL-5 melanoma): 0.105 µM | TGI (SK-MEL-5 melanoma): 2.21 µM | GI50 (OVCAR-3 ovarian): < 0.0186 µM | TGI (OVCAR-3 ovarian): 0.206 µM | GI50 (NCI-H226 lung): 0.238 µM | TGI (NCI-H226 lung): 5.08 µM | GI50 (A498 renal): 0.0765 µM | TGI (A498 renal): 0.31 µM | GI50 (HS 578T breast): 0.0534 µM | TGI (HS 578T breast): 3.52 µM | GI50 (HCC-2998 colon): 0.144 µM | TGI (HCC-2998 colon): 10.8 µM | GI50 (NCI-H522 lung): 0.0695 µM | TGI (NCI-H522 lung): 0.247 µM | GI50 (T-47D breast): 0.016 µM | TGI (T-47D breast): 0.0651 µM

CC(=O)OC1CC[C@@]2(C)C(CC[C@]3(C)C2CC=C2[C@@H]4C(C)[C@H](C)CCC4(C)CCC23C)[C@@]1(C)C(=O)O (stereo partly drawn)
TGI (SK-OV-3 ovarian): 40.4 µM | TGI (HL-60(TB) leukemia): 63.5 µM | TGI (SK-MEL-5 melanoma): 35.5 µM | TGI (OVCAR-3 ovarian): 40.4 µM | TGI (NCI-H226 lung): 53.4 µM | TGI (A498 renal): 37.2 µM | TGI (HS 578T breast): 64.9 µM | TGI (HCC-2998 colon): 38.7 µM | TGI (NCI-H522 lung): 45.4 µM | TGI (T-47D breast): 43.3 µM

Cc1cc(Cl)ccc1Nc1nc(C(F)(F)F)ccc1C(=O)N/N=C/c1ccccc1Cl
GI50 (SK-OV-3 ovarian): 0.874 µM | TGI (SK-OV-3 ovarian): 4.95 µM | GI50 (HL-60(TB) leukemia): 1.12 µM | GI50 (SK-MEL-5 melanoma): 1.39 µM | TGI (SK-MEL-5 melanoma): 3.51 µM | GI50 (OVCAR-3 ovarian): 0.239 µM | TGI (OVCAR-3 ovarian): 2.15 µM | GI50 (NCI-H226 lung): 1.3 µM | TGI (NCI-H226 lung): 5.07 µM | TGI (A498 renal): 3.14 µM | GI50 (HS 578T breast): 1.26 µM | TGI (HS 578T breast): 5.67 µM | GI50 (HCC-2998 colon): 1.34 µM | TGI (HCC-2998 colon): > 100 µM | GI50 (NCI-H522 lung): 1.48 µM | TGI (NCI-H522 lung): 6.77 µM | GI50 (T-47D breast): 0.824 µM | TGI (T-47D breast): 4.63 µM

O=c1oc2ccc(-c3ccc(F)cc3F)cc2c(=O)n1-c1ccc(Cl)c(C(F)(F)F)c1
GI50 (SK-OV-3 ovarian): 2.01 µM | TGI (SK-OV-3 ovarian): 5.17 µM | GI50 (HL-60(TB) leukemia): 2.43 µM | TGI (HL-60(TB) leukemia): 5.35 µM | GI50 (SK-MEL-5 melanoma): 1.6 µM | TGI (SK-MEL-5 melanoma): 3.05 µM | GI50 (OVCAR-3 ovarian): 3.17 µM | TGI (OVCAR-3 ovarian): > 100 µM | GI50 (NCI-H226 lung): 2.03 µM | TGI (NCI-H226 lung): 6.11 µM | GI50 (A498 renal): 0.656 µM | TGI (A498 renal): 2.4 µM | GI50 (HS 578T breast): 2.42 µM | TGI (HS 578T breast): 8.16 µM | GI50 (HCC-2998 colon): 2.41 µM | TGI (HCC-2998 colon): 6.03 µM | GI50 (NCI-H522 lung): 2.09 µM | TGI (NCI-H522 lung): 8.97 µM | GI50 (T-47D breast): 0.585 µM | TGI (T-47D breast): 4.34 µM

Oc1[nH]c2ccccc2c1N=Nc1c(F)c(F)c(F)c(F)c1F
TGI (SK-OV-3 ovarian): > 100 µM | TGI (HL-60(TB) leukemia): 9.15 µM | TGI (SK-MEL-5 melanoma): > 100 µM | TGI (OVCAR-3 ovarian): > 100 µM | TGI (NCI-H226 lung): > 100 µM | TGI (A498 renal): > 100 µM | TGI (HS 578T breast): > 100 µM | TGI (HCC-2998 colon): > 100 µM | TGI (NCI-H522 lung): 47.7 µM | TGI (T-47D breast): > 74.7 µM

Cc1cn(-c2ccc(S(C)(=O)=O)cc2)c(-c2ccc(Cl)cc2)n1
GI50 (SK-OV-3 ovarian): > 100 µM | TGI (SK-OV-3 ovarian): > 100 µM | GI50 (HL-60(TB) leukemia): > 100 µM | TGI (HL-60(TB) leukemia): > 100 µM | GI50 (SK-MEL-5 melanoma): > 100 µM | TGI (SK-MEL-5 melanoma): > 100 µM | GI50 (OVCAR-3 ovarian): > 100 µM | TGI (OVCAR-3 ovarian): > 100 µM | GI50 (NCI-H226 lung): > 100 µM | TGI (NCI-H226 lung): > 100 µM | GI50 (A498 renal): > 100 µM | TGI (A498 renal): > 100 µM | GI50 (HS 578T breast): > 100 µM | TGI (HS 578T breast): > 100 µM | GI50 (HCC-2998 colon): > 100 µM | TGI (HCC-2998 colon): > 100 µM | GI50 (NCI-H522 lung): > 100 µM | TGI (NCI-H522 lung): > 100 µM | GI50 (T-47D breast): > 100 µM | TGI (T-47D breast): > 100 µM

O=S(=O)(Nc1ccc(F)c(Cl)c1)c1ccc(-c2cnc(C3CC3)o2)cc1
GI50 (SK-OV-3 ovarian): 0.728 µM | TGI (SK-OV-3 ovarian): 14.4 µM | GI50 (HL-60(TB) leukemia): 0.213 µM | TGI (HL-60(TB) leukemia): 2.16 µM | GI50 (SK-MEL-5 melanoma): 0.316 µM | TGI (SK-MEL-5 melanoma): 1.67 µM | GI50 (OVCAR-3 ovarian): 0.154 µM | TGI (OVCAR-3 ovarian): 4.01 µM | GI50 (NCI-H226 lung): 0.822 µM | TGI (NCI-H226 lung): 10.1 µM | GI50 (A498 renal): 0.156 µM | TGI (A498 renal): 0.823 µM | GI50 (HS 578T breast): 0.28 µM | TGI (HS 578T breast): 4.53 µM | GI50 (HCC-2998 colon): 1.13 µM | TGI (HCC-2998 colon): 7.9 µM | GI50 (NCI-H522 lung): 0.164 µM | TGI (NCI-H522 lung): 3.75 µM | GI50 (T-47D breast): 0.361 µM | TGI (T-47D breast): 13.1 µM
